Data published in US11638716B2, “Compounds, compositions, and methods for the treatment of disease” (F-star Therapeutics, Inc., priority 2017, dated 2023).

Legend:
Type in all cases: cell-based
NF-κβ = test: In vitro induction of NF-κβ in THP1 dual cells (SEAP reporter)
Method: (§1) Example 2. In Vitro Induction of IRF and NF-κβ in THP1 Cells
(§2) THP1 dual cells grown in complete media were treated with various concentrations of a compound of the present disclosure or DMSO control. Dual cells carry both secreted embryonic alkaline phosphatase (SEAP) reporter gene under the control of an IFN-β minimal promoter fused to five copies of the NF-kB consensus transcriptional response element to measure NF-kB activity and Lucia reporter gene under the control of an ISG54 minimal promoter to measure IRF activity. After 20 h incubation, IRF activity was assessed using QUANTI-luc to measure levels of Lucia and NF-kB activity was determined by measure SEAP levels at 620-655 nm. % induction was calculated from fold change in luminescence/absorbance compared to DMSO treated sample. […] EC50 values were generated by curve fit in Xlfit.
(§3) Cells grown in complete media were treated with various concentrations of a compound of the disclosure or DMSO control. Dual cells carry both secreted embryonic alkaline phosphatase (SEAP) reporter gene under the control of an IFN-β minimal promoter fused to five copies of the NF-kB consensus transcriptional response element to measure NF-kB activity and Lucia reporter gene under the control of an ISG54 minimal promoter to measure IRF activity. After 20 h incubation, IRF activity was assessed using QUANTI-luc to measure levels of Lucia and NF-kB activity was determined by measure SEAP levels at 620-655 nm. % induction was calculated from fold change in luminescence/absorbance compared to DMSO treated sample. EC50 values are generated by curve fit in Xlfit.

IRF = test: In vitro induction of IRF in THP1 dual cells (Lucia reporter, ISG54 promoter)
Method: as §1, §2, §3

STING KO cells = test: IRF and NF-kB reporter activity in STING KO cells; conditions: 20 hours
Method: (§4) FIG. 21 depicts cells stably expressing both or either one of the reporters to measure IRF and NF-kB activity were treated with a range of concentrations of compound 1 or DMSO control for 20 hours. IRF activity was assessed using QUANTI-luc to measure levels of Lucia and NF-kB activity was determined by measure SEAP levels at 620-655 nm. % induction was calculated from fold change in luminescence/absorbance compared to DMSO treated sample. EC50 values are generated by curve fit in Xlfit.
as §4, with “22” for “21”, “2” for “1”
as §4, with “24” for “21”, “3” for “1”
as §4, with “27” for “21”, “4” for “1”
as §3

wild type STING = molecular target: T1, wild type STING (Homo sapiens, UniProt Q86WV6, H232R); test: IRF/NF-kB reporter cells, wild type STING; conditions: 20 hours
T1 construct: expressed in transfected cells; host or cells: THP1-Dual-KI-STING-R232 (made from THP-Dual-STING KO cells)
Method: as §4, with “22” for “21”, “2” for “1”
as §4, with “24” for “21”, “3” for “1”
as §4, with “27” for “21”, “4” for “1”
(§5) Cells grown in complete media were treated with various concentrations of a compound of the disclosure or DMSO control. […] After 20 h incubation, IRF activity was assessed using QUANTI-luc to measure levels of Lucia and NF-kB activity was determined by measure SEAP levels at 620-655 nm. % induction was calculated from fold change in luminescence/absorbance compared to DMSO treated sample. […]

wt-mSTING = molecular target: T2, wt-mSTING (Mus musculus, UniProt Q3TBT3); test: IRF/NF-kB reporter cells, wt-mSTING; conditions: 20 hours
T2 construct: endogenous in cells
T2 sequence (Q3TBT3 1-378): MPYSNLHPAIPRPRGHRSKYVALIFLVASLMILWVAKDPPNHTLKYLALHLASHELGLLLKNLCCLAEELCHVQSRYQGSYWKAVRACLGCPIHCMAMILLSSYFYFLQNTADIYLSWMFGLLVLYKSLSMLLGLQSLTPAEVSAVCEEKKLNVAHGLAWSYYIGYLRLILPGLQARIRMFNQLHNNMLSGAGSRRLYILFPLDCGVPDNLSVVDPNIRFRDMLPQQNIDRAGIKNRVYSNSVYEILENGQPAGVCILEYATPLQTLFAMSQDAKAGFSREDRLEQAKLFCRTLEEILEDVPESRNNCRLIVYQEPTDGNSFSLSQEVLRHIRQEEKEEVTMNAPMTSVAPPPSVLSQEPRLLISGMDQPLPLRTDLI
Method: as §4, with “22” for “21”, “2” for “1”
as §4, with “24” for “21”, “3” for “1”
as §4, with “27” for “21”, “4” for “1”
as §5

[1] = system: RAW-Lucia-ISG-STING KO cells; test: IRF-type I IFN secreted luciferase in RAW-Lucia-ISG-STING KO cells; conditions: compound alone, 19 hours
Method: FIG. 4 depicts RAW-Lucia-ISG-WT and RAW-Lucia-ISG-STING KO cells were stimulated with compound 2 or compound 4, alone for 19 hours. Activity of secreted luciferase (IRF-type I IFN activity) in cell culture supernatant was measured using Invivogen's Quanti-luc. Data is shown as fold induction over DMSO treated cells (mean±standard deviation of triplicate wells per stimulant). EC50 values were calculated using XLfit.

[2] = molecular target: T3, R71H-G230A-R293Q (HAQ) variant of hSTING (Homo sapiens, UniProt Q86WV6, G230A/H232R/R293Q/R71H); test: IRF/NF-kB reporter cells, STING HAQ variant; conditions: 20 hours
T3 construct: THP1-Dual-WT cells express STING-HAQ variant; endogenous in cells; host or cells: THP1-Dual-WT cells
Method: as §4, with “22” for “21”, “2” for “1”
as §4, with “24” for “21”, “3” for “1”
as §4, with “27” for “21”, “4” for “1”
as §5

[3] = system: mouse bone marrow derived dendritic cells (DCs) and macrophages; test: ISG gene expression (Taqman) in mouse bone marrow derived dendritic cells and macrophages; conditions: 20 hours
Method: FIG. 23 depicts cryopreserved mouse bone marrow derived dendritic cells (DCs) and macrophages treated with a range of concentrations of compound 2 or DMSO control for 20 hours. Cell pellets were harvested to collect total RNA. The gene expression levels of ISGs were measured by Taqman Assays.

[4] = Homo sapiens, THP-1, 20 h incubation

T3 sequence (Q86WV6 whole entry R71H/G230A/H232R/R293Q): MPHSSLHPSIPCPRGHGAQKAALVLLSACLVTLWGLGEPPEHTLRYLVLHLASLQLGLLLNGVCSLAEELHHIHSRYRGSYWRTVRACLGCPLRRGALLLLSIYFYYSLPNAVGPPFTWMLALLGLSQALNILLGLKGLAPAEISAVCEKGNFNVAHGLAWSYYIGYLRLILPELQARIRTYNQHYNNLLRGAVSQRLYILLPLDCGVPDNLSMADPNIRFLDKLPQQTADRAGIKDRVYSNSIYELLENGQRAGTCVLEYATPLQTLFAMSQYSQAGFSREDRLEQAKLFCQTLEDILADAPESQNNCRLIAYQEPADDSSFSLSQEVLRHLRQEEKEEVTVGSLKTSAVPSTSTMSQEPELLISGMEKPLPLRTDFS
T1 sequence (Q86WV6 whole entry H232R): as the sequence (Q86WV6 whole entry R71H/G230A/H232R/R293Q) above, with H71R, A230G, Q293R counted along it

| SMILES | EC50 (NF-κβ; [4]) [nM] | EC50 (IRF; [4]) [nM] | IRF activity in STING KO cells (STING KO cells) | NF-κβ in STING KO cells (STING KO cells) | STING dependence of activity (STING KO cells) | EC50 (NF-κβ; 20 h incubation) [nM] | activity against wild type STING (wild type STING) | EC50 (IRF; 20 h incubation) [nM] | activity against wt-mSTING (wt-mSTING) | IRF activity in STING KO cells [1] | activity against R71H-G230A-R293Q (HAQ) variant of hSTING [2] | ISG expression [3] |
| --- | --- | --- | --- | --- | --- | --- | --- | --- | --- | --- | --- | --- |
| Nc1ncnc2c1ncn2[C@@H]1O[C@@H]2COP(=O)(O)O[C@H]3[C@@H](F)[C@H](n4ccc(=O)[nH]c4=O)O[C@@H]3COP(=O)(O)O[C@@H]1[C@@H]2F [Compound 1] | > 2000 | > 2000 | did not induce | did not induce | possess STING dependent activity | – | – | – | – | – | – | – |
| CCCCCCCCCCOc1ccc(C(=O)Oc2ccc(CSP3(=O)OC[C@H]4O[C@@H](n5cnc6c(N)ncnc65)[C@H](OP(=O)(O)OC[C@H]5O[C@@H](n6ccc(=O)[nH]c6=O)[C@H](F)[C@@H]5O3)[C@@H]4F)cc2)cc1 (some centres unmarked) [Compound 2] | – | – | did not induce | did not induce | – | 1000 to 2000 | possess activity | < 50 | possess activity | Neither compound induced IRF activity | possess activity | induces ISG expression |
